According to patent US20110152298A1, “IMIDAZO [2,1-B] QUINAZOLIN-2-ONE DERIVATIVES AND THEIR USE AS PLATELET ANTI-AGGREGATIVE AGENTS” (SHIRE LLC, priority 2008, published 2011):

Columns and labels:
[1] = test system: human megakaryocytopoiesis; settings: cited from earlier work
[2] = target: human phosphodiesterase III (PDE III); settings: cited from earlier work
[3] = test system: erythroid or myelomonocytic differentiation; settings: stimulated by erythropoietin or granulocyte-macrophage colony-stimulating factor; cited from earlier work
[4] = test system: platelet count; settings: patients with thrombocythemia secondary to a myeloproliferative disorder; cited from earlier work
[5] = in vivo; cited from earlier work
[6] = test system: human phosphodiesterase III (PDE III); experiment: PDE III inhibition; assay type: biochemical
Excerpt: In early volunteer trials, the most frequently reported adverse effects AEs other than headache were palpitations, postural dizziness and nausea. During patient studies, the most frequently reported drug-related AEs were headache, palpitations, oedema/fluid retention, nausea/vomiting, diarrhea, dizziness and abdominal pain. These effects are all likely to arise from the secondary, cardiovascular pharmacology associated with anagrelide resulting from its inhibitory effects on human phosphodiesterase III (PDE III). […] Inhibition of myocardial PDE III leads to positive inotropy (increasing of the force of contractions of the heart), increased chronotropy (increase in heart rate), and peripheral vasodilatation. Such cardiovascular manifestations of this inhibition are typically seen with the classical positive inotropes, milrinone and enoximone, and exploited in the short-term acute treatment of congestive heart failure. However, in the treatment of a so-called silent disease (i.e., asymptomatic) such as ET, the cardiovascular side-effects of palpitations and tachycardia associated with anagrelide limit its utility and a significant proportion of patients—reportedly between 25 and 50%—fail to tolerate the drug during long term treatment.

[7] = Pharmacokinetics of anagrelide and its metabolite; assay type: in vivo, human; settings: typical exposures, relative to anagrelide
Excerpt: The PDE III inhibitory properties of anagrelide are quite distinct from its platelet lowering anti-megakaryocytic effects. Indeed studies have shown no correlation between potency as a PDE III inhibitor and anti-megakaryocytic effects for anagrelide and its principal pharmacologically active metabolite, 3-hydroxyanagrelide (3-OH anagrelide or 3-HA, formerly known as SPD604 or BCH24426). […] Anagrelide's active metabolite, 3-HA, is present in vivo in amounts greatly exceeding those of the parent drug with typical exposures being 2-3 fold greater. Thus by implication 3-OH anagrelide is likely to be a major contributor to the pharmacological actions of the drug.
The metabolism of anagrelide generally proceeds extremely rapidly, resulting in a less than ideal pharmacokinetic profile of the drug. […] This, combined with the side-effects profile, can lead to poor patient compliance. Furthermore, anagrelide undergoes a large first pass effect (>50%) leading to considerable intersubject variation in achieved exposures and, therefore, potentially variable drug response. Also, exposure to the pharmacologically active metabolite varies dramatically between patients since its formation is dependent on CYP1A, an enzyme whose expression is highly dependent on exposure to inducing agents such as cigarette smoke. […]

potency as PDE III inhibitor relative to anagrelide [6] | exposure in vivo relative to parent drug [7] | Structure (SMILES) | IC50 ([1]; TPO-induced, dose-dependent, read-out: estimated IC50, inhibition of TPO-induced megakaryocytopoiesis) [nM] | IC50 [2] [nM] | effect on erythroid or myelomonocytic differentiation [3] | time to complete response (platelet count ≦600×10^9/L) [4] [weeks] | first pass effect [5] [%] | potency of inhibition of megakaryocytopoiesis relative to parent drug ([1]; relative to anagrelide) | typical half-life [5] [h]
– | – | O=C1CN2Cc3c(ccc(Cl)c3Cl)N=C2N1 [Anagrelide, 6,7-dichloro-1,5-dihydroimidazo[2,1-b]-quinazolin-2(3H)-one] | ~26 | ~29 | does not affect | 4 to 12 | > 50 | – | –
over 40 fold | 2-3 fold | O=C1NC2=Nc3ccc(Cl)c(Cl)c3CN2C1O (stereo not shown) [3-hydroxyanagrelide] | – | – | – | – | – | no more potent than the parent drug | 2.5
– | – | Cc1[nH]c(=O)c(C#N)cc1-c1ccncc1 [milrinone] | – | 170 to 350 | – | – | – | – | –
